Laboratory results as given in article PMC3914206.

Assays:
Assay type in all cases: binding
Conditions in all cases: Compound Concentration 10 µM
panel of 442 kinases [1] = biological target: T1, panel of 442 kinases (Homo sapiens, UniProt P09769)
T1 construct: purchased KINOMEscan
Excerpt: (§1) We assessed the selectivity of members of this scaffold using the KINOMEscan methodology across a near comprehensive panel of 442 kinases [[18,27]].

panel of 442 kinases [2] = biological target: T2, panel of 442 kinases (Homo sapiens, UniProt P08581, M1250T)
T2 construct: purchased KINOMEscan
T2 sequence (P08581 25-1390 M1250T): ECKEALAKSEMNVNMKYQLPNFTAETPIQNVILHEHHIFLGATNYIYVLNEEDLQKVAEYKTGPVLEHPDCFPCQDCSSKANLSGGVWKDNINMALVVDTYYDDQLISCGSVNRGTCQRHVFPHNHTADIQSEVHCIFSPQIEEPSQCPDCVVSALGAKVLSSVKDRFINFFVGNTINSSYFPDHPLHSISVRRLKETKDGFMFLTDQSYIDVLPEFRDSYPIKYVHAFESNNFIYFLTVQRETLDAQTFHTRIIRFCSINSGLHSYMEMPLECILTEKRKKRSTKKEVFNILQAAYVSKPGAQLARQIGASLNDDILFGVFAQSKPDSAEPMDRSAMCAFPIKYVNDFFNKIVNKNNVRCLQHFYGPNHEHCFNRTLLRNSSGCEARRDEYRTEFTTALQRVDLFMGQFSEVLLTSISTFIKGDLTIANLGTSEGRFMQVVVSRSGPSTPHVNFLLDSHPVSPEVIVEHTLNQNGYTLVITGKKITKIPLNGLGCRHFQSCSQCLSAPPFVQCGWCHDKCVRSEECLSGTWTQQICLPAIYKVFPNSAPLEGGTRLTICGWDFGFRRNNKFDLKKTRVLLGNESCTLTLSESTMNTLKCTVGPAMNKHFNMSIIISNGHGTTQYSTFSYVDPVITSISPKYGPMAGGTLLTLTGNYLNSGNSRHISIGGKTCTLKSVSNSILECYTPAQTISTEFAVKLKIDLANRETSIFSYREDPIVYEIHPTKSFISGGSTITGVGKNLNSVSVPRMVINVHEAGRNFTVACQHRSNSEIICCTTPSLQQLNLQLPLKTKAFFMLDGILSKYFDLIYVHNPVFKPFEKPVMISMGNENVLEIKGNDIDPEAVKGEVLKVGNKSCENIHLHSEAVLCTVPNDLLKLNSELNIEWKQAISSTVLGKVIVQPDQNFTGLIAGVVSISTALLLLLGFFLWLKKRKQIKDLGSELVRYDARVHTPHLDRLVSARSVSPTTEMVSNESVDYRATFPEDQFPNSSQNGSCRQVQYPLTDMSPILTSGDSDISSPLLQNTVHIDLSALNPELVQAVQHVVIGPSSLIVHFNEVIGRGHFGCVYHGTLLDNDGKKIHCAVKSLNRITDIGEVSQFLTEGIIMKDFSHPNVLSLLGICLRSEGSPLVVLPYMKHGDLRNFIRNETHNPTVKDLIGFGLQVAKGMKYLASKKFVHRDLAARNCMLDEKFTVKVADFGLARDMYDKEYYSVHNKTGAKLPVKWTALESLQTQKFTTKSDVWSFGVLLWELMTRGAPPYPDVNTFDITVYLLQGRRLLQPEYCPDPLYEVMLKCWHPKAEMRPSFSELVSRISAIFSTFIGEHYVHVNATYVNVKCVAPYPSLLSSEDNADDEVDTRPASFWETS
Excerpt: as §1

panel of 442 kinases [3] = biological target: T3, panel of 442 kinases (Homo sapiens, UniProt P42345)
T3 construct: purchased KINOMEscan
Excerpt: as §1

panel of 442 kinases [4] = biological target: T4, panel of 442 kinases (Homo sapiens, UniProt O60331)
T4 construct: purchased KINOMEscan
T4 sequence (O60331 whole entry): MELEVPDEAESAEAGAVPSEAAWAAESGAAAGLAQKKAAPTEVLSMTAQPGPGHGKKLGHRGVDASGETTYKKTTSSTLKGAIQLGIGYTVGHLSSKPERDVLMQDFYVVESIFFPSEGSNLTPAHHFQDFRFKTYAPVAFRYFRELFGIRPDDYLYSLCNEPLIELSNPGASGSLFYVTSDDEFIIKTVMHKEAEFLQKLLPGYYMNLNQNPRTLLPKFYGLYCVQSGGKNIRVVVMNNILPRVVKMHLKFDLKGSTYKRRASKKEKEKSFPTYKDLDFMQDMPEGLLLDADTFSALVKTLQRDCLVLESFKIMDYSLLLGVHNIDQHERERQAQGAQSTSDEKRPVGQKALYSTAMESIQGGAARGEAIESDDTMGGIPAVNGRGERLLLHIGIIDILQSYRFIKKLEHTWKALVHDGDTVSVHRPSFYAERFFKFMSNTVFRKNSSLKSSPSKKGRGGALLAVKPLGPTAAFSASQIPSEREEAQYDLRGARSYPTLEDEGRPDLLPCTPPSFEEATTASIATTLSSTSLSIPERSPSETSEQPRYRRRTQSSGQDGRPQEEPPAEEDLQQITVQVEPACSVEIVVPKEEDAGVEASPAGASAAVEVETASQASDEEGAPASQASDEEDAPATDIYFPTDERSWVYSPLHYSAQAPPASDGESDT
Excerpt: as §1

T1 sequence (P09769 whole entry): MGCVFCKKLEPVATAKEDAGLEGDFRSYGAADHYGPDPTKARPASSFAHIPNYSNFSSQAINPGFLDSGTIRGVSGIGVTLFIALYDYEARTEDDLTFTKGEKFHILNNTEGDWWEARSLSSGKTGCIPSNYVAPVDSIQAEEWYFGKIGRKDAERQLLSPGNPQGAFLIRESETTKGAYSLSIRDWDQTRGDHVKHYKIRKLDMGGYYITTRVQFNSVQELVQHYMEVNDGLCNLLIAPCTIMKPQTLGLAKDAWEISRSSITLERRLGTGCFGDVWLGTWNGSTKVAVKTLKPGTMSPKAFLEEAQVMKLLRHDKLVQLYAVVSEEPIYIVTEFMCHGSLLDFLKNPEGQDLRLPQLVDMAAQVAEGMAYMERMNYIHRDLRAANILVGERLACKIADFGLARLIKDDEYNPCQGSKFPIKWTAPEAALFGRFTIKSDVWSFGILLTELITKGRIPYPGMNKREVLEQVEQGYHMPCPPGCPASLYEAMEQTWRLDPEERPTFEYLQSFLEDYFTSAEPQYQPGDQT

Structure (SMILES): CCOc1cc(C(=O)N2CCC(N3CCN(C)CC3)CC2)ccc1Nc1ncc2c(n1)N(C1CCCC1)c1ccccc1C(=O)N2C [Compound 26]
- KINOMEscan: FGR (panel of 442 kinases [1]): 99
- KINOMEscan: MET(M1250T) (panel of 442 kinases [2]): 100
- KINOMEscan: MTOR (panel of 442 kinases [3]): 100
- KINOMEscan: PIP5K1C (panel of 442 kinases [4]): 100

Structure (SMILES): COc1cc(C(=O)N2CCC(N3CCN(C)CC3)CC2)ccc1Nc1ncc2c(n1)N(C1CCCC1)c1ccccc1C(=O)N2C [Compound 25, 11-cyclopentyl-2-((2-methoxy-4-(4-(4-methylpiperazin-1-yl)piperidine-1-carbonyl)phenyl)amino)-5-methyl-5H-benzo[e]pyrimido[5,4-b][1,4]diazepin-6(11H)-one]
- KINOMEscan: FGR (panel of 442 kinases [1]): 98
- KINOMEscan: MET(M1250T) (panel of 442 kinases [2]): 95
- KINOMEscan: MTOR (panel of 442 kinases [3]): 100
- KINOMEscan: PIP5K1C (panel of 442 kinases [4]): 100

Structure (SMILES): COc1cc(C(=O)N2CCC(N3CCN(C)CC3)CC2)ccc1Nc1ncc2c(n1)N1CCc3cccc(c31)C(=O)N2C [Compound 24]
- KINOMEscan: FGR (panel of 442 kinases [1]): 79
- KINOMEscan: MET(M1250T) (panel of 442 kinases [2]): 88
- KINOMEscan: PIP5K1C (panel of 442 kinases [4]): 6.3

Structure (SMILES): COc1cc(C(=O)N2CCC(N3CCN(C)CC3)CC2)ccc1Nc1ncc2c(n1)N(C)c1ccccc1C(=O)N2C [15 (LRRK2-IN-1)]
- KINOMEscan: FGR (panel of 442 kinases [1]): 84
- KINOMEscan: MET(M1250T) (panel of 442 kinases [2]): 96
- KINOMEscan: MTOR (panel of 442 kinases [3]): 97
- KINOMEscan: PIP5K1C (panel of 442 kinases [4]): 96
